Key:
[1] = system: LTB4 biosynthesis in lesional skin biopsies of HS patients; test: LTB4 biosynthesis in ionophore-stimulated skin biopsies of HS patients (LC-MS/MS); type: cell-based, human; settings: 5 uM inhibitor 2 h, then 2 h 10 ug/mL ionophore
Procedure: Frozen human skin biopsies from healthy skin or discard HS lesions (on average 500 mg) were pulverized using mechanical force (Covaris) and homogenized in 4 mL of methanol containing deuterium labelled internal standards (ISTDs) using a bead-beating device (2×20 sec cycles of 5000 rpm, Precellys) maintained at low temperature. Then, samples were kept at −20° C./45 min to allow for protein precipitation and centrifuged at 13000 rpm for 10 min at 4° C. The supernatants were then evaporated (Genevac) until complete dryness and reconstituted in 70 μL of methanol:water (50%/50%; v/v) followed by injection in the LC-MS/MS system. Calibration curves were freshly prepared by serial dilution of pure standards in methanol:water (50%/50%, v/v) containing ISTDs and quantitation was done by comparing metabolite to ISTD peak area ratios in samples to that of calibrators.
Two analytical platforms were employed for data acquision depending on instrument availability: 1) Waters H class UPLC system coupled to a Waters XevoTQS triple quadrupole mass (QQQ) spectrometer and 2) a Dionex Ultimate 3000RS UPLC coupled to a Sciex6500+ QQQ. Separation of lipids was achieved using reverse-phase columns ACQUITY UPLC BEH C18 1.7 μm, 2.1×50 mm and CORTECS UPLC C18 1.6 μm, 2.1×50 mm heated at 40° C., respectively. The flow rate was set to 0.180 mL/min and the mobile phase consisted of water-acetic acid (99.99/0.01; v/v) (A) and methanol-acetonitrile-acetic acid (B) (50/50/0.01; v/v/v). The eluent gradient was maintained at 45% of B for 2 min, follow by 45%-65% of B during 2-16 min, from 65%-100% during 16-19 min and 100% of B from 19-22 min. From 23-30 min the column was re-equilibrated with initial conditions. Ionization was performed using an ESI source operated in negative ion mode. Fragmentation was tuned for each compound individually.
. Skin biopsies were then harvested, lipids extracted and analyzed for generation of LTB4 by LC-MS/MS as described above. Stimulated skin biopsies of HS lesions generated a large amount of the lipid mediator LTB4. […]. (FIGS. 10 and 11)
Lesional skin biopsies of HS patients were left untreated or fully stimulated with ionophore to induce LTB4 biosynthesis in the presence or absence of a LTA4H inhibitor
LTB4 quantities are given in fmol/mg tissue. Shown are representative results obtained with one donor per compound out of several tested.

[2] = First in human trial Part 1 (SAD): plasma pharmacokinetics
Excerpt: (§1) The study consisted of a part 1, single ascending dose (SAD) and a part 2 multiple ascending dose (MAD).
(§2) Part 1 was a randomized, subject-blinded and Investigator-partial-blinded, placebo-controlled, single ascending oral dose study.

[3] = First in human trial Part 2 (MAD): plasma pharmacokinetics
Procedure: as §1
(§3) Cohort 1: multiple once daily (qd) oral dose of 5 mg or matching placebo Cohort 2: multiple once daily (qd) oral dose of 15 mg or matching placebo Cohort 3: multiple oral daily dose of 20 mg or matching placebo administered twice daily (bid) Cohort 4: multiple oral daily dose of 40 mg or matching placebo administered twice daily (bid) Cohort 5: multiple oral daily dose of 80 mg or matching placebo administered twice daily (bid) Part 2 Multiple Ascending Dose Design (qd)—Overview of the Study Part 2 Multiple Ascending Dose Design (Bid)—Overview of the Study

[4] = First in human trial (SAD/MAD): safety and tolerability in healthy subjects
Procedure: as §1, §2, §3

[5] = system: Leukotriene B4 (LTB4) in blood; test: Leukotriene B4 (LTB4) in human plasma of ex vivo stimulated whole blood (FIH PD biomarker, LC-MS/MS)
Procedure: Therefore, LTB4 concentrations were determined in plasma of ex-vivo stimulated whole blood by a LC-MS/MS method.
Ex-vivo stimulation was performed at the clinical site according to the following procedure: Whole blood (500 μL) were stimulated for 30 min using Calcium Ionophore A23187.
Human plasma was processed with organic precipitation followed by separation by reverse phase high performance liquid chromatography with tandem mass spectrometric detection.
AB Sciex QTrap 5500 MS/MS Turbo Spray Ion Drive negative ion mode.
Sample from each subject and time point was prepared and analyzed in three aliquots. Aliquot one and two contained plasma from ex-vivo stimulated whole blood, while aliquot three as negative control contained plasma from non-stimulated whole blood.
LTB4 concentration data were calculated as mean of concentration of aliquot one and two. Concentration of aliquot three was not be included in the calculation. The change from baseline and percent inhibition (percent of baseline) for each biomarker was calculated. Baseline was the mean of the Baseline and Day 1, −1 h measurements.

[6] = system: LTB4 in human skin blister fluids; test: LTB4 in cantharidin induced skin blister fluid (FIH); type: in vivo; settings: 40 mg daily dose (20 mg BID)
Procedure: In parts 1 and 2 of the clinical study (SAD and MAD), skin blisters were induced on the arm of subjects in selected cohorts. For this 10 mm diameter filter paper discs humected with a solution of cantharidin (such as cantharone) were applied on the arm of the subject, inducing an epidermal blister, and the blister fluid was collected approximately 24 hours (+/−1 hr) after the application.
(§4) Blister fluid samples were collected at Day 1 pre-dose and Day 2 pre-dose in SAD cohort 4 as well as Day 1 pre-dose and Day 9 predose in MAD cohort 2-5.
Blister fluid samples were received frozen on dry ice and stored at −70° C. or below until analysis. On the day of analysis, samples were taken out of the freezer and immediately extracted after Thawing.
90 μL of blister fluid (sample or QC sample) was enriched with 5 μL of internal standard solution IS-L-2 (deuterated Leukotrienes and lipoxin at 50 ng/mL) and vortexed in a micro centrifuge tube. 90 μL of methanol with 0.1% formic acid was added. This was followed by 5 minutes vortex mixing and 10 minutes sonication on ice. The samples were incubated at −20° C. in a freezer for 40 minutes. This was followed by centrifugation at 16,000 rpm (27,500×g) at 4° C. for 20 minutes. 160 μL of the supernatant was transferred onto Millipore 5 kDa MWCO filters. MWCO filters have previously been cleaned by centrifuging 500 μL methanol/water 1/1 thru the filters. […]

clinical = settings: for mean concentration in blister fluid: pre-dose on Day 9
Excerpt: In parts 1 and 2 of the clinical study (SAD and MAD), skin blisters were induced on the arm of subjects in selected cohorts.
as §4

[7] = 5 mg qd to 80 mg bid (16-fold per dosing interval)

N[C@@H](CC(=O)O)Cn1nnc(-c2ccc(Oc3ccc(Cl)cc3)cc2)n1 [compound of embodiment 3D, (S)-3-amino-4-(5-(4-(4-chlorophenoxy)-phenyl)-2H-tetrazol-2-yl)butanoic acid]
LTB4 generation by stimulated skin biopsies of HS lesions [1]: almost no LTB4 | LTB4 generation by stimulated skin biopsies of HS lesions ([1]; listed as Compound of embodiment 3D): suppresses

N[C@@H](CC(=O)O)Cn1nnc(-c2ccc(Oc3ncc(Cl)cc3F)cc2)n1 [compound of example 1, (S)-3-amino-4-(5-(4-((5-chloro-3-fluoropyridin-2-yl)oxy)phenyl)-2H-tetrazol-2-yl)butanoic acid]
dose proportionality of AUClast over the whole dose range ([2]; 5 mg to 2 times 100 mg): demonstrated | AUC0-24 h increase with dose ([2]; 40-fold increase in daily dose (5 mg to 100 mg bid)): 75 fold | increase in dose over which AUC0-24 h can be considered dose proportional ([2]; SAD): ≤ 2.57 fold | increase in dose over which Cmax can be considered dose proportional ([2]; SAD): up to 4.50 fold | Cmax increase with dose ([2]; dose increase from 5 to 100 mg (20-fold)): 21.7 fold | Tmax ([2]; human, in vivo, po): 1 to 1.5 h | half-life ([2]; human, in vivo, po): 245 to 513 h | AUC on Day 12 (AUC0-12 h,ss bid; AUC0-24 h,ss qd) increase with dose [3, 7]: 20.9 fold | Cmax on Day 12 increase with dose [3, 7]: 17.9 fold | time to reach steady state exposure ([3]; BID oral dosing, fed state): 3 to 4 days | increase in dose over which AUCtau can be considered dose proportional ([3]; MAD): ≤ 6.29 fold | increase in dose over which Cmax,ss can be considered dose proportional ([3]; MAD): up to 2.12 fold | accumulation to steady state ([3]; all higher doses (above 5 mg qd)): ≤ 1.4 fold | mean Racc, day 1 ([3]; day 1 of the bid regimen): 1.09-1.29 | mean accumulation to steady state ([3]; lowest dose of 5 mg qd): 2.1 fold | time at which steady state is achieved ([3]; morning pre-dose concentrations, MAD): ~3 days | dose proportionality criteria for AUCtau ([3]; steady state, 5 mg qd to 40 mg bid): met | LTB4 generation by stimulated skin biopsies of HS lesions [1]: almost no LTB4 | LTB4 generation by stimulated skin biopsies of HS lesions ([1]; listed as Compound of Example 1): suppresses | findings in physical exam, vital signs or ECGs related to compound ([4]; SAD and MAD, healthy subjects): No significant findings | maximal tolerated dose ([4]; SAD up to 200 mg total daily dose, MAD up to 80 mg BID for 12 days): no maximal tolerated dose was established | adverse events leading to study discontinuation ([4]; SAD up to 2 x 100 mg, MAD up to 80 mg BID for 12 days, healthy subjects): No adverse events led to study discontinuation | tolerability ([4]; doses up to 80 mg bid (160 mg daily dose) over 12 days, healthy subjects): well tolerated | treated subjects with increases in lipase ([4]; one SAD 5 mg, two MAD 80 mg BID, asymptomatic, transient): Three | amylase increase accompanying lipase increase ([4]; the three subjects with lipase elevations, mild): ≤ 1.5 ULN | suppression of LTB4 in blood at steady state ([5]; 40 mg daily dose (20 mg BID)): nearly complete suppression | blood cell stimulated LTB4 release, reduction from baseline ([5]; SAD 5 mg, at 24 hours): 25-50% | suppression of LTB4 in human skin blister fluids [6]: 90% | mean concentration in blister fluid (clinical; Part 2, 15 mg qd): 4.62 ng/mL | mean concentration in blister fluid (clinical; Part 2, 80 mg bid): 233 ng/mL | Kp at 24 h (clinical; human, in vivo, 30 mg): 0.14 | concentration at 24 h (clinical; human, in vivo, 30 mg): 4.67 ng/mL
